Laboratory results reported in patent publication US6358885B1, “Substituted phenylheterocyclic herbicides” (Mississippi State University, priority 1992, dated 2002).

Experiments:
Experiment in all cases: Test B preemergence/postemergence greenhouse plant response rating 0 to 10
wheat = assay type: in vivo, Triticum aestivum; conditions: for Plant response rating, Wheat: 0 to 10 scale
In short: (§1)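 Test chemicals were sprayed onto freshly planted seed and, concurrently, onto young plants between the one and four leaf stage. After a twelve- to sixteen-day greenhouse period, each species was visually compared with untreated controls.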

chickweed = assay type: in vivo, Stellaria media; conditions: for Plant response rating, Chickweed: 0 to 10 scale
In short: as §1

cocklebur = assay type: in vivo, Xanthium pensylvanicum; conditions: for Plant response rating, Cocklebur: 0 to 10 scale
In short: as §1

purple nutsedge = assay type: in vivo, Cyperus rotundus; conditions: for Plant response rating, Nutsedge: 0 to 10 scale
In short: as §1

wild buckwheat = assay type: in vivo, Polygonum convolvulus; conditions: for Plant response rating, Wild buckwheat: 0 to 10 scale
In short: as §1

sorghum = assay type: in vivo, Sorghum bicolor; conditions: for Plant response rating, Sorghum: 0 to 10 scale
In short: as §1

cotton = assay type: in vivo, Gossypium hirsutum; conditions: for Plant response rating, Cotton: 0 to 10 scale
In short: as §1

sugar beet = assay type: in vivo, Beta vulgaris; conditions: for Plant response rating, Sugar beet: 0 to 10 scale
In short: as §1

soybean = assay type: in vivo, Glycine max; conditions: for Plant response rating, Soybean: 0 to 10 scale
In short: as §1

morningglory = assay type: in vivo, Ipomoea hederacea; conditions: for Plant response rating, Morningglory: 0 to 10 scale
In short: as §1

cheatgrass = assay type: in vivo, Bromus secalinus; conditions: for Plant response rating, Cheatgrass: 0 to 10 scale
In short: as §1

velvetleaf = assay type: in vivo, Abutilon theophrasti; conditions: for Plant response rating, Velvetleaf: 0 to 10 scale
In short: as §1

giant foxtail = assay type: in vivo, Setaria faberii; conditions: for Plant response rating, Giant foxtail: 0 to 10 scale
In short: as §1

barnyardgrass = assay type: in vivo, Echinochloa crus-galli; conditions: for Plant response rating, Barnyardgrass: 0 to 10 scale
In short: as §1

blackgrass = assay type: in vivo, Alopecurus myosuroides; conditions: for Plant response rating, Blackgrass: 0 to 10 scale
In short: as §1

bedstraw = assay type: in vivo, Galium aparine; conditions: for Plant response rating, Bedstraw: 0 to 10 scale
In short: as §1

wild oat = assay type: in vivo, Avena fatua; conditions: for Plant response rating, Wild oat: 0 to 10 scale
In short: as §1

corn = assay type: in vivo, Zea mays; conditions: for Plant response rating, Corn: 0 to 10 scale
In short: as §1

lambsquarters = assay type: in vivo, Chenopodium album; conditions: for Plant response rating, Lambsquarter: 0 to 10 scale
In short: as §1

barley = assay type: in vivo, Hordeum vulgare; conditions: for Plant response rating, Barley: 0 to 10 scale
In short: as §1

rice = assay type: in vivo, Oryza sativa; conditions: for Plant response rating, Rice: 0 to 10 scale
In short: as §1

crabgrass = assay type: in vivo, Digitaria spp.; conditions: for Plant response rating, Crabgrass: 0 to 10 scale
In short: as §1

rape = assay type: in vivo, Brassica napus; conditions: for Plant response rating, Rape: 0 to 10 scale
In short: as §1

## CCOC(=O)COc1cc(-c2nn3c(c2Cl)CCCC3)c(Cl)cc1Cl [Compound 73]
wheat; POSTEMERGENCE, Rate 50 g/ha
  Plant response rating, Wheat: 2
wheat; PREEMERGENCE, Rate 50 g/ha
  Plant response rating, Wheat: 0
wheat; PREEMERGENCE, Rate 200 g/ha
  Plant response rating (0 to 10 scale), Wheat: 2
wheat; Rate 200 g/ha, POSTEMERGENCE
  Plant response rating, Wheat: 4
chickweed; POSTEMERGENCE, Rate 50 g/ha
  Plant response rating, Chickweed: 2
chickweed; PREEMERGENCE, Rate 50 g/ha
  Plant response rating, Chickweed: 2
chickweed; PREEMERGENCE, Rate 200 g/ha
  Plant response rating (0 to 10 scale), Chickweed: 4
chickweed; Rate 200 g/ha, POSTEMERGENCE
  Plant response rating, Chickweed: 3
cocklebur; POSTEMERGENCE, Rate 50 g/ha
  Plant response rating, Cocklebur: 8
cocklebur; PREEMERGENCE, Rate 50 g/ha
  Plant response rating, Cocklebur: 0
cocklebur; PREEMERGENCE, Rate 200 g/ha
  Plant response rating (0 to 10 scale), Cocklebur: 0
cocklebur; Rate 200 g/ha, POSTEMERGENCE
  Plant response rating, Cocklebur: 10
Purple nutsedge; POSTEMERGENCE, Rate 50 g/ha
  Plant response rating, Nutsedge: 2
Purple nutsedge; PREEMERGENCE, Rate 50 g/ha
  Plant response rating, Nutsedge: 0
Purple nutsedge; PREEMERGENCE, Rate 200 g/ha
  Plant response rating (0 to 10 scale), Nutsedge: 0
Purple nutsedge; Rate 200 g/ha, POSTEMERGENCE
  Plant response rating, Nutsedge: 3
Wild buckwheat; POSTEMERGENCE, Rate 50 g/ha
  Plant response rating, Wild buckwheat: 10
Wild buckwheat; PREEMERGENCE, Rate 50 g/ha
  Plant response rating, Wild buckwheat: 0
Wild buckwheat; PREEMERGENCE, Rate 200 g/ha
  Plant response rating (0 to 10 scale), Wild buckwheat: 3
Wild buckwheat; Rate 200 g/ha, POSTEMERGENCE
  Plant response rating, Wild buckwheat: 10
sorghum; POSTEMERGENCE, Rate 50 g/ha
  Plant response rating, Sorghum: 4
sorghum; PREEMERGENCE, Rate 50 g/ha
  Plant response rating, Sorghum: 0
sorghum; PREEMERGENCE, Rate 200 g/ha
  Plant response rating (0 to 10 scale), Sorghum: 0
sorghum; Rate 200 g/ha, POSTEMERGENCE
  Plant response rating, Sorghum: 5
cotton; POSTEMERGENCE, Rate 50 g/ha
  Plant response rating, Cotton: 10
cotton; PREEMERGENCE, Rate 50 g/ha
  Plant response rating, Cotton: 0
cotton; PREEMERGENCE, Rate 200 g/ha
  Plant response rating (0 to 10 scale), Cotton: 0
cotton; Rate 200 g/ha, POSTEMERGENCE
  Plant response rating, Cotton: 10
Sugar beet; POSTEMERGENCE, Rate 50 g/ha
  Plant response rating, Sugar beet: 10
Sugar beet; PREEMERGENCE, Rate 50 g/ha
  Plant response rating, Sugar beet: 5
Sugar beet; PREEMERGENCE, Rate 200 g/ha
  Plant response rating (0 to 10 scale), Sugar beet: 5
Sugar beet; Rate 200 g/ha, POSTEMERGENCE
  Plant response rating, Sugar beet: 10
soybean; POSTEMERGENCE, Rate 50 g/ha
  Plant response rating, Soybean: 2
soybean; PREEMERGENCE, Rate 50 g/ha
  Plant response rating, Soybean: 0
soybean; PREEMERGENCE, Rate 200 g/ha
  Plant response rating (0 to 10 scale), Soybean: 0
soybean; Rate 200 g/ha, POSTEMERGENCE
  Plant response rating, Soybean: 5
morningglory; POSTEMERGENCE, Rate 50 g/ha
  Plant response rating, Morningglory: 10
morningglory; PREEMERGENCE, Rate 50 g/ha
  Plant response rating, Morningglory: 0
morningglory; PREEMERGENCE, Rate 200 g/ha
  Plant response rating (0 to 10 scale), Morningglory: 0
morningglory; Rate 200 g/ha, POSTEMERGENCE
  Plant response rating, Morningglory: 9
cheatgrass; POSTEMERGENCE, Rate 50 g/ha
  Plant response rating, Cheatgrass: 3
cheatgrass; PREEMERGENCE, Rate 50 g/ha
  Plant response rating, Cheatgrass: 0
cheatgrass; PREEMERGENCE, Rate 200 g/ha
  Plant response rating (0 to 10 scale), Cheatgrass: 2
cheatgrass; Rate 200 g/ha, POSTEMERGENCE
  Plant response rating, Cheatgrass: 6
velvetleaf; POSTEMERGENCE, Rate 50 g/ha
  Plant response rating, Velvetleaf: 6
velvetleaf; PREEMERGENCE, Rate 50 g/ha
  Plant response rating, Velvetleaf: 2
velvetleaf; PREEMERGENCE, Rate 200 g/ha
  Plant response rating (0 to 10 scale), Velvetleaf: 7
velvetleaf; Rate 200 g/ha, POSTEMERGENCE
  Plant response rating, Velvetleaf: 9
Giant foxtail; POSTEMERGENCE, Rate 50 g/ha
  Plant response rating, Giant foxtail: 5
Giant foxtail; PREEMERGENCE, Rate 50 g/ha
  Plant response rating, Giant foxtail: 0
Giant foxtail; PREEMERGENCE, Rate 200 g/ha
  Plant response rating (0 to 10 scale), Giant foxtail: 0
Giant foxtail; Rate 200 g/ha, POSTEMERGENCE
  Plant response rating, Giant foxtail: 5
barnyardgrass; POSTEMERGENCE, Rate 50 g/ha
  Plant response rating, Barnyardgrass: 7
barnyardgrass; PREEMERGENCE, Rate 50 g/ha
  Plant response rating, Barnyardgrass: 0
barnyardgrass; PREEMERGENCE, Rate 200 g/ha
  Plant response rating (0 to 10 scale), Barnyardgrass: 0
barnyardgrass; Rate 200 g/ha, POSTEMERGENCE
  Plant response rating, Barnyardgrass: 9
blackgrass; POSTEMERGENCE, Rate 50 g/ha
  Plant response rating, Blackgrass: 5
blackgrass; PREEMERGENCE, Rate 50 g/ha
  Plant response rating, Blackgrass: 0
blackgrass; PREEMERGENCE, Rate 200 g/ha
  Plant response rating (0 to 10 scale), Blackgrass: 0
blackgrass; Rate 200 g/ha, POSTEMERGENCE
  Plant response rating, Blackgrass: 5
bedstraw; POSTEMERGENCE, Rate 50 g/ha
  Plant response rating, Bedstraw: 7
bedstraw; PREEMERGENCE, Rate 50 g/ha
  Plant response rating, Bedstraw: 2
bedstraw; PREEMERGENCE, Rate 200 g/ha
  Plant response rating (0 to 10 scale), Bedstraw: 9
bedstraw; Rate 200 g/ha, POSTEMERGENCE
  Plant response rating, Bedstraw: 8
Wild oat; POSTEMERGENCE, Rate 50 g/ha
  Plant response rating, Wild oat: 1
Wild oat; PREEMERGENCE, Rate 50 g/ha
  Plant response rating, Wild oat: 0
Wild oat; PREEMERGENCE, Rate 200 g/ha
  Plant response rating (0 to 10 scale), Wild oat: 2
Wild oat; Rate 200 g/ha, POSTEMERGENCE
  Plant response rating, Wild oat: 1
corn; POSTEMERGENCE, Rate 50 g/ha
  Plant response rating, Corn: 5
corn; PREEMERGENCE, Rate 50 g/ha
  Plant response rating, Corn: 0
corn; PREEMERGENCE, Rate 200 g/ha
  Plant response rating (0 to 10 scale), Corn: 0
corn; Rate 200 g/ha, POSTEMERGENCE
  Plant response rating, Corn: 8
lambsquarters; POSTEMERGENCE, Rate 50 g/ha
  Plant response rating, Lambsquarter: 9
lambsquarters; PREEMERGENCE, Rate 50 g/ha
  Plant response rating, Lambsquarter: 9
lambsquarters; PREEMERGENCE, Rate 200 g/ha
  Plant response rating (0 to 10 scale), Lambsquarter: 10
lambsquarters; Rate 200 g/ha, POSTEMERGENCE
  Plant response rating, Lambsquarter: 10
barley; POSTEMERGENCE, Rate 50 g/ha
  Plant response rating, Barley: 2
barley; PREEMERGENCE, Rate 50 g/ha
  Plant response rating, Barley: 0
barley; PREEMERGENCE, Rate 200 g/ha
  Plant response rating (0 to 10 scale), Barley: 0
barley; Rate 200 g/ha, POSTEMERGENCE
  Plant response rating, Barley: 3
rice; POSTEMERGENCE, Rate 50 g/ha
  Plant response rating, Rice: 6
rice; PREEMERGENCE, Rate 50 g/ha
  Plant response rating, Rice: 0
rice; PREEMERGENCE, Rate 200 g/ha
  Plant response rating (0 to 10 scale), Rice: 0
rice; Rate 200 g/ha, POSTEMERGENCE
  Plant response rating, Rice: 6
crabgrass; POSTEMERGENCE, Rate 50 g/ha
  Plant response rating, Crabgrass: 3
crabgrass; PREEMERGENCE, Rate 50 g/ha
  Plant response rating, Crabgrass: 0
crabgrass; PREEMERGENCE, Rate 200 g/ha
  Plant response rating (0 to 10 scale), Crabgrass: 0
crabgrass; Rate 200 g/ha, POSTEMERGENCE
  Plant response rating, Crabgrass: 6
rape; POSTEMERGENCE, Rate 50 g/ha
  Plant response rating, Rape: 7
rape; PREEMERGENCE, Rate 50 g/ha
  Plant response rating, Rape: 2
rape; PREEMERGENCE, Rate 200 g/ha
  Plant response rating (0 to 10 scale), Rape: 2
rape; Rate 200 g/ha, POSTEMERGENCE
  Plant response rating, Rape: 10
